In data set [1] the test system is TGF-beta signal transduction. As to conditions: p-SMAD2 western blot (Gaspar et al., 2007); cited from earlier work. (A western blot detects proteins with antibodies after separation by electrophoresis.)
Data set [2] relates to human glioma cells HTZ-349 and A-172. Kind of data set: cell-mediated tumor cytotoxicity assay, calcein release (CARE-LASS). The following applies: PBMC and target cells preincubated 6 days with SD-208, IL-2 and GM-CSF; effector/target 1:100, 1:10, 1:1; 4 hours; FIG. 2. The data set is classed as cell-based. The procedure: Establishment and culture of primary tumor cell cultures were performed as previously described (Jachimczak et al., 1993). Briefly, tumor specimens were cultivated in Dulbecco's minimum essential medium (DMEM) containing 10% FCS, 1% BME vitamin solution, and 1% MEM nonessential amino acids. HTZ-349 was established as primary cell culture from a patient suffering from glioblastoma multiforme (GBM, Grade IV). A-172 cells were obtained from ATCC (GBM). Peripheral blood mononuclear cells (PBMC) were isolated from venous blood of two healthy donors by standard Ficoll-Hypaque gradient centrifugation (Jachimczak et al., 1993).
PBMC were activated with IL-2 (Proleukin S) and GM-CSF. Immune cell cytotoxicity against the target tumor cells was determined in a calcein-release assay (Lichtenfels et al., 1994) by adding pre-activated PBMC to glioma target cells at an effector/target ratio of 1:100, 1:10 and 1:1. After 4 hours, fluorescence of supernatants was analyzed (Fluoroscan, Germany) and calculated as described (Lichtenfels et al., 1994).

Regarding `Fc1ccc(Cl)cc1-c1nc(Nc2ccncc2)c2nccnc2n1` [SD-208], the “inhibition of TGF-beta signal transduction” value in data set [1] is given as “inhibits TGF-beta signal transduction in a dose-dependent fashion”. The “allogenous cell cytotoxicity against glioma target cells” value in data set [2] is reported as “enhanced”.
